Results from PubChem BioAssay (NCI).
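GI50 marks 50% less growth. TGI denotes the concentration required for complete inhibition of growth.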

Experiments:
Test in all cases: NCI-60 cell line screen, 384-well format
NCI/ADR-RES ovarian = tested on: NCI/ADR-RES ovarian
UO-31 renal = tested on: UO-31 renal
MDA-MB-435 melanoma = tested on: MDA-MB-435 melanoma
SR leukemia = tested on: SR leukemia
SF-295 CNS = tested on: SF-295 CNS
BT-549 breast = tested on: BT-549 breast
HCC-2998 colon = tested on: HCC-2998 colon
RPMI-8226 leukemia = tested on: RPMI-8226 leukemia
NCI-H23 lung = tested on: NCI-H23 lung
A498 renal = tested on: A498 renal
NCI-H460 NSCLC = tested on: NCI-H460 NSCLC
HT29 colon = tested on: HT29 colon
SK-MEL-28 melanoma = tested on: SK-MEL-28 melanoma
HOP-92 NSCLC = tested on: HOP-92 NSCLC
NCI-H522 lung = tested on: NCI-H522 lung
ACHN renal = tested on: ACHN renal
MDA-MB-231 breast = tested on: MDA-MB-231 breast
SN12C renal = tested on: SN12C renal
HL-60(TB) leukemia = tested on: HL-60(TB) leukemia
MDA-MB-468 breast = tested on: MDA-MB-468 breast
M14 melanoma = tested on: M14 melanoma
K-562 leukemia = tested on: K-562 leukemia
HOP-62 NSCLC = tested on: HOP-62 NSCLC
OVCAR-8 ovarian = tested on: OVCAR-8 ovarian
T-47D breast = tested on: T-47D breast
KM12 colon = tested on: KM12 colon
SK-OV-3 ovarian = tested on: SK-OV-3 ovarian
CAKI-1 renal = tested on: CAKI-1 renal
SW-620 colon = tested on: SW-620 colon
HS 578T breast = tested on: HS 578T breast
SNB-75 CNS = tested on: SNB-75 CNS
MCF7 breast = tested on: MCF7 breast
IGROV1 ovarian = tested on: IGROV1 ovarian
SNB-19 CNS = tested on: SNB-19 CNS
MALME-3M melanoma = tested on: MALME-3M melanoma
SF-268 CNS = tested on: SF-268 CNS
COLO 205 colon = tested on: COLO 205 colon
DU-145 prostate = tested on: DU-145 prostate
A549 NSCLC = tested on: A549 NSCLC
MOLT-4 leukemia = tested on: MOLT-4 leukemia
OVCAR-4 ovarian = tested on: OVCAR-4 ovarian
CCRF-CEM leukemia = tested on: CCRF-CEM leukemia
SK-MEL-5 melanoma = tested on: SK-MEL-5 melanoma
UACC-62 melanoma = tested on: UACC-62 melanoma
PC-3 prostate = tested on: PC-3 prostate
OVCAR-3 ovarian = tested on: OVCAR-3 ovarian
HCT-15 colon = tested on: HCT-15 colon
EKVX NSCLC = tested on: EKVX NSCLC
RXF 393 renal = tested on: RXF 393 renal
TK-10 renal = tested on: TK-10 renal
OVCAR-5 ovarian = tested on: OVCAR-5 ovarian
NCI-H226 lung = tested on: NCI-H226 lung
LOX IMVI melanoma = tested on: LOX IMVI melanoma
NCI-H322M lung = tested on: NCI-H322M lung
786-0 renal = tested on: 786-0 renal
UACC-257 melanoma = tested on: UACC-257 melanoma
SF-539 CNS = tested on: SF-539 CNS

SMILES: Cn1c(=O)c2c(ncn2CC(=O)Nc2ccc(-c3ccccc3)nn2)n(C)c1=O
- GI50 (NCI/ADR-RES ovarian): > 100 µM
- TGI (NCI/ADR-RES ovarian): > 100 µM
- GI50 (UO-31 renal): > 100 µM
- TGI (UO-31 renal): > 100 µM
- GI50 (MDA-MB-435 melanoma): > 100 µM
- TGI (MDA-MB-435 melanoma): > 100 µM
- GI50 (SR leukemia): 21.6 µM
- TGI (SR leukemia): > 100 µM
- GI50 (SF-295 CNS): > 100 µM
- TGI (SF-295 CNS): > 100 µM
- GI50 (BT-549 breast): > 100 µM
- TGI (BT-549 breast): > 100 µM
- GI50 (HCC-2998 colon): > 100 µM
- TGI (HCC-2998 colon): > 100 µM
- GI50 (RPMI-8226 leukemia): > 100 µM
- TGI (RPMI-8226 leukemia): > 100 µM
- GI50 (NCI-H23 lung): > 100 µM
- TGI (NCI-H23 lung): > 100 µM
- GI50 (A498 renal): > 100 µM
- TGI (A498 renal): > 100 µM
- GI50 (NCI-H460 NSCLC): > 100 µM
- TGI (NCI-H460 NSCLC): > 100 µM
- GI50 (HT29 colon): > 100 µM
- TGI (HT29 colon): > 100 µM
- GI50 (SK-MEL-28 melanoma): > 100 µM
- TGI (SK-MEL-28 melanoma): > 100 µM
- GI50 (HOP-92 NSCLC): > 100 µM
- TGI (HOP-92 NSCLC): > 100 µM
- GI50 (NCI-H522 lung): > 100 µM
- TGI (NCI-H522 lung): > 100 µM
- GI50 (ACHN renal): > 100 µM
- TGI (ACHN renal): > 100 µM
- GI50 (MDA-MB-231 breast): 70.8 µM
- TGI (MDA-MB-231 breast): > 100 µM
- GI50 (SN12C renal): > 100 µM
- TGI (SN12C renal): > 100 µM
- GI50 (HL-60(TB) leukemia): 6.01 µM
- TGI (HL-60(TB) leukemia): > 100 µM
- GI50 (MDA-MB-468 breast): 15.9 µM
- TGI (MDA-MB-468 breast): 96.4 µM
- GI50 (M14 melanoma): > 100 µM
- TGI (M14 melanoma): > 100 µM
- GI50 (K-562 leukemia): > 100 µM
- TGI (K-562 leukemia): > 100 µM
- GI50 (HOP-62 NSCLC): > 100 µM
- TGI (HOP-62 NSCLC): > 100 µM
- GI50 (OVCAR-8 ovarian): > 100 µM
- TGI (OVCAR-8 ovarian): > 100 µM
- GI50 (T-47D breast): 36.3 µM
- TGI (T-47D breast): > 100 µM
- GI50 (KM12 colon): > 100 µM
- TGI (KM12 colon): > 100 µM
- GI50 (SK-OV-3 ovarian): > 100 µM
- TGI (SK-OV-3 ovarian): > 100 µM
- GI50 (CAKI-1 renal): > 100 µM
- TGI (CAKI-1 renal): > 100 µM
- GI50 (SW-620 colon): > 100 µM
- TGI (SW-620 colon): > 100 µM
- GI50 (HS 578T breast): 72.9 µM
- TGI (HS 578T breast): > 100 µM
- GI50 (SNB-75 CNS): > 100 µM
- TGI (SNB-75 CNS): > 100 µM
- GI50 (MCF7 breast): > 100 µM
- TGI (MCF7 breast): > 100 µM
- GI50 (IGROV1 ovarian): > 100 µM
- TGI (IGROV1 ovarian): > 100 µM
- GI50 (SNB-19 CNS): > 100 µM
- TGI (SNB-19 CNS): > 100 µM
- GI50 (MALME-3M melanoma): > 100 µM
- TGI (MALME-3M melanoma): > 100 µM
- GI50 (SF-268 CNS): > 100 µM
- TGI (SF-268 CNS): > 100 µM
- GI50 (COLO 205 colon): > 100 µM
- TGI (COLO 205 colon): > 100 µM
- GI50 (DU-145 prostate): > 100 µM
- TGI (DU-145 prostate): > 100 µM
- GI50 (A549 NSCLC): > 100 µM
- TGI (A549 NSCLC): > 100 µM
- GI50 (MOLT-4 leukemia): > 100 µM
- TGI (MOLT-4 leukemia): > 100 µM
- GI50 (OVCAR-4 ovarian): 25.8 µM
- TGI (OVCAR-4 ovarian): > 100 µM
- GI50 (CCRF-CEM leukemia): 60.2 µM
- TGI (CCRF-CEM leukemia): > 100 µM
- GI50 (SK-MEL-5 melanoma): 3.44 µM
- TGI (SK-MEL-5 melanoma): > 100 µM
- GI50 (UACC-62 melanoma): 74.6 µM
- TGI (UACC-62 melanoma): > 100 µM
- GI50 (PC-3 prostate): > 100 µM
- TGI (PC-3 prostate): > 100 µM
- GI50 (OVCAR-3 ovarian): > 100 µM
- TGI (OVCAR-3 ovarian): > 100 µM
- GI50 (HCT-15 colon): > 100 µM
- TGI (HCT-15 colon): > 100 µM
- GI50 (EKVX NSCLC): > 100 µM
- TGI (EKVX NSCLC): > 100 µM
- GI50 (RXF 393 renal): 27.1 µM
- TGI (RXF 393 renal): > 100 µM
- GI50 (TK-10 renal): > 100 µM
- TGI (TK-10 renal): > 100 µM
- GI50 (OVCAR-5 ovarian): > 100 µM
- TGI (OVCAR-5 ovarian): > 100 µM
- GI50 (NCI-H226 lung): > 100 µM
- TGI (NCI-H226 lung): > 100 µM
- GI50 (LOX IMVI melanoma): > 100 µM
- TGI (LOX IMVI melanoma): > 100 µM
- GI50 (NCI-H322M lung): > 100 µM
- TGI (NCI-H322M lung): > 100 µM
- GI50 ([…]-0 renal): > 100 µM
- TGI (786-0 renal): > 100 µM
- GI50 (UACC-257 melanoma): 49.8 µM
- TGI (UACC-257 melanoma): > 100 µM
- GI50 (SF-539 CNS): > 100 µM
- TGI (SF-539 CNS): > 100 µM
